Measured values published in article PMC6886544.
Several values for one entry are separate records, joined by “and”; a condition that tells them apart may be missing. Identical values can stand only once. Like-named read-outs stand apart in the source and are kept apart here.

Experiments:
[1] = Microsomal stability (phase I), mouse; format: in vitro ADME; details: mouse liver microsomes, up to 60 minutes, 37 °C
Procedure: Microsomal stability (phase I) assay.
Metabolic stability under oxidative conditions was measured in liver microsomes from different
time up to 50 minutes (HLM) or 60 minutes (MLM) at 37 °C. Based on the compound half-life t1/2,
the in vitro intrinsic clearance CLint was calculated. […]

[2] = test system: H358 cells (KRAS mutant); assay: CellTiter-Glo viability assay, H358; format: cell-based; details: Homo sapiens, read-out: KRAS CTG EC50 H358;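 note: viable cell number estimated from ATP-dependent luminescence following exposure to serially diluted inhibitor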
[3] = test system: A549 cells (KRAS mutant); assay: CellTiter-Glo viability assay, A549; details: Homo sapiens, A549, 96 h, read-out: KRAS CTG EC50 A549
[4] = target: EGFR-L858R/T790M (Homo sapiens, UniProt P00533, L858R/T790M); assay: HTRF KinEASE-TK activity-based assay, EGFR-L858R/T790M
EGFR-L858R/T790M, sequence (P00533 25-1210 T790M/L858R): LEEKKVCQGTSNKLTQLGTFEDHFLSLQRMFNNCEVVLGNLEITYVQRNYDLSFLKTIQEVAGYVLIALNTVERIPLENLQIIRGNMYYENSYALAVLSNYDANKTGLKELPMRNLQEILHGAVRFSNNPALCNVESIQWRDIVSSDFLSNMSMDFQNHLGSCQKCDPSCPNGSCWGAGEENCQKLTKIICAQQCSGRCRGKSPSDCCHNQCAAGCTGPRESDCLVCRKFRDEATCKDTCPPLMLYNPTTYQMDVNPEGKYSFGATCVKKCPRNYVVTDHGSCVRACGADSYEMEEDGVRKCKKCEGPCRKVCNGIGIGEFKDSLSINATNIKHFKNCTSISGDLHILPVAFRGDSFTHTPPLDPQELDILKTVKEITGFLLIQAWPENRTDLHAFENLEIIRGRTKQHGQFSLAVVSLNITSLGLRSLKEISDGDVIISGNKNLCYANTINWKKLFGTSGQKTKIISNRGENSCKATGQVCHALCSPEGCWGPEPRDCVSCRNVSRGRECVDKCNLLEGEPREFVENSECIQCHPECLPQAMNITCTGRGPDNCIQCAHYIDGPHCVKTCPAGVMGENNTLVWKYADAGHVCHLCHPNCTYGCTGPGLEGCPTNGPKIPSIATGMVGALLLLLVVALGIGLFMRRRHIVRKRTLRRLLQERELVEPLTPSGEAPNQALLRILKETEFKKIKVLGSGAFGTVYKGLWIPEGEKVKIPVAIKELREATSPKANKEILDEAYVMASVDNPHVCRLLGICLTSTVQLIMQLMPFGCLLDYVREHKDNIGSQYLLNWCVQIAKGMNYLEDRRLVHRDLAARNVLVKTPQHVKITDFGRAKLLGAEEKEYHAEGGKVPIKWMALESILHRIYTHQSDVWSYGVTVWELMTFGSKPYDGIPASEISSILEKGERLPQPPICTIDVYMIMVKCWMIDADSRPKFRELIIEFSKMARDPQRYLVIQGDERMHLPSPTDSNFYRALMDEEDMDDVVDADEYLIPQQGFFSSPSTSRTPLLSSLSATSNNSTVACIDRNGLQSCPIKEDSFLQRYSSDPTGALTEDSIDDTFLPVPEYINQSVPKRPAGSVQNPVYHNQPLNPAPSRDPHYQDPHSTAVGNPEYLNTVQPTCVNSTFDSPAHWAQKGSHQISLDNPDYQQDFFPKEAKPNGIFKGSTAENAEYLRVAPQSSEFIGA

[5] = test system: A431 cells (EGFR wild type); assay: CellTiter-Glo viability assay, A431; details: Homo sapiens, A-431, 96 h, read-out: EGFR CTG EC50 A431, A431, 96 hours, CellTiter-Glo
[6] = test system: H1975 cells (EGFR-L858R/T790M); assay: CellTiter-Glo viability assay, H1975
[7] = target: EGFR-wt (Homo sapiens, UniProt P00533); assay: HTRF KinEASE-TK activity-based assay, EGFR-wt
EGFR-wt, sequence (P00533 25-1210): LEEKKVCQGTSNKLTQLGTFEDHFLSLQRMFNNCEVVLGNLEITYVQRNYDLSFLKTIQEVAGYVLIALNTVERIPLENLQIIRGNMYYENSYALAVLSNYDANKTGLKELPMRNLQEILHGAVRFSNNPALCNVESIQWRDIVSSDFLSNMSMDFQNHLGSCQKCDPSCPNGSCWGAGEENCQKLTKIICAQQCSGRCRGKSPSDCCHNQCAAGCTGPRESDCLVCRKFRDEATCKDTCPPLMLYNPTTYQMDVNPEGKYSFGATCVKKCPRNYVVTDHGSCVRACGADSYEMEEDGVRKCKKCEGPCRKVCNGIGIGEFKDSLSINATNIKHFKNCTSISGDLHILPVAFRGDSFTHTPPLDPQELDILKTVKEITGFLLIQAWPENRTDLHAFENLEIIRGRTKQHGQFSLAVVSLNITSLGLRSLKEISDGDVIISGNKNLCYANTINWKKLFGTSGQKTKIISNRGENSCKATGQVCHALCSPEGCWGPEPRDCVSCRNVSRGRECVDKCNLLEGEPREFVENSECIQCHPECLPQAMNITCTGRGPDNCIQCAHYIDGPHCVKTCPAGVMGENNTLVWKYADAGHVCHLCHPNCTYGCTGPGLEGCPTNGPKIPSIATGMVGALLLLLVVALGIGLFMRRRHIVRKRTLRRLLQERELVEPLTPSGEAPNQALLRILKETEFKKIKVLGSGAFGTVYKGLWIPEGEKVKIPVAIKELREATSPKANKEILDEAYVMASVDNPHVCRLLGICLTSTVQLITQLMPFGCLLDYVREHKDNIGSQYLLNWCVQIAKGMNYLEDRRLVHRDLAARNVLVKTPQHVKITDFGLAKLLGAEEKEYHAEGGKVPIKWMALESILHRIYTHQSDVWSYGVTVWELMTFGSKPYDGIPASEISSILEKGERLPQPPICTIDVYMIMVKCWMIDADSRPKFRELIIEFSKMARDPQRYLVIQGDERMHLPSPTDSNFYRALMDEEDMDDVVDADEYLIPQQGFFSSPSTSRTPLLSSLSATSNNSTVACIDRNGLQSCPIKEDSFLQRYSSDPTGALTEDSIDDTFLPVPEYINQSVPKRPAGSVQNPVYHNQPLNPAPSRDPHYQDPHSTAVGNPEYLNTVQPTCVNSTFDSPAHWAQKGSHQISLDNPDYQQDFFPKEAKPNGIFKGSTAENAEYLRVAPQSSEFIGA

[8] = test system: HCC827 cells (EGFR-delE746_A750); assay: CellTiter-Glo viability assay, HCC827; format: cell-based; details: Homo sapiens; HCC827, 96 hours, CellTiter-Glo; read-out: EGFR CTG EC50 HCC827;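 note: luminescence from ATP content as a measure of metabolically active cells, in RPMI with 10% FBS, compound added as serial dilutions after 24 h of preculture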
[9] = target: EGFR-L858R (Homo sapiens, UniProt P00533, L858R); assay: HTRF KinEASE-TK activity-based assay, EGFR-L858R
EGFR-L858R, sequence (P00533 25-1210 L858R): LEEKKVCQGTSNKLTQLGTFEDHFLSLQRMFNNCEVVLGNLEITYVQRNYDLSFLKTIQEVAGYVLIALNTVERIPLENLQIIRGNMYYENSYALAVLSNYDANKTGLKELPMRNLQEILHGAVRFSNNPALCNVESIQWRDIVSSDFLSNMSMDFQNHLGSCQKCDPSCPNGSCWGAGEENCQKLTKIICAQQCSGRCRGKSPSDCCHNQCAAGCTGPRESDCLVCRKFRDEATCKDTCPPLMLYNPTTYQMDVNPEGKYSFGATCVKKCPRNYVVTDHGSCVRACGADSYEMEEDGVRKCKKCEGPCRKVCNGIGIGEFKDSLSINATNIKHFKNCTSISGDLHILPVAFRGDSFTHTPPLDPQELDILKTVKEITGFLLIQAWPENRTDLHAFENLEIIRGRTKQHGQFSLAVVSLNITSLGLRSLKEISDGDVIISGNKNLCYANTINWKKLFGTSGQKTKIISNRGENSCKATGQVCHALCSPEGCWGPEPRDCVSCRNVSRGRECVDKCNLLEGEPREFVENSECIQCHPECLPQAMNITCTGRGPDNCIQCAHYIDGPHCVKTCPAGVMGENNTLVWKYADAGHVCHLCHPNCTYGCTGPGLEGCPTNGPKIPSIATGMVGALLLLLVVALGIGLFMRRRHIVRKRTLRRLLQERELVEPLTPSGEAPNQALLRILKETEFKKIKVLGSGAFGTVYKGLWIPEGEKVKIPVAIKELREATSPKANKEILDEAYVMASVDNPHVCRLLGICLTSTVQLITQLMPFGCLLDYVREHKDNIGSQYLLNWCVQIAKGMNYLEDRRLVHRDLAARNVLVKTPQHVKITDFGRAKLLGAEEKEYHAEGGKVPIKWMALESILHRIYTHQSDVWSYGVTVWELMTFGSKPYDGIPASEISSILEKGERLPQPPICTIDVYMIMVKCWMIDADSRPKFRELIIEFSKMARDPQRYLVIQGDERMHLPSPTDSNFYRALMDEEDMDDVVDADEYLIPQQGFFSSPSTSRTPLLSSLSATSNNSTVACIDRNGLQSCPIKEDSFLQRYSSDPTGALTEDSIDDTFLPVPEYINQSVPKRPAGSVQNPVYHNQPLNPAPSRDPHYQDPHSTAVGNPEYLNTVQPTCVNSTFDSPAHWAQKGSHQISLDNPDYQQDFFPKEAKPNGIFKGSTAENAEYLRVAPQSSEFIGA

[10] = EGFR HTRF IC50 L858R/T790M, ATP at Km (4 µM), 30 min preincubation, mean ± SD of three independent measurements in duplicates
[11] = Homo sapiens, NCI-H1975, 96 h, read-out: EGFR CTG EC50 H1975, H1975, 96 hours, CellTiter-Glo
[12] = read-out: EGFR CTG EC50 H1975, H1975, 96 hours, CellTiter-Glo
[13] = EGFR HTRF IC50 wt, ATP at Km (9.5 µM), 30 min preincubation, mean ± SD of three independent measurements in duplicates
[14] = NCI-H358, H358, 96 hours, CellTiter-Glo

microsomal CLint at 3 µM [1] [µL/min/mg]	EC50 ([2]; NCI-H358, 96 h) [nM]	EC50 [3] [nM]	IC50 [4, 10]	EC50 [5] [nM]	EC50 [6, 11] [nM]	EC50 [6, 12] [nM]	IC50 [7, 13] [nM]	EC50 [2, 14] [nM]	EC50 [8] [nM]	IC50 [9] [nM]	IC50 ([4]; IC50 gatekeeper mutant EGFR, rounded value) [nM]	IC50 ([7]; IC50 EGFR-wt, rounded value) [nM]	EC50 ([6]; Homo sapiens, NCI-H1975, read-out: EC50 / potency in H1975 cells, H1975, rounded value in running text) [nM]	SMILES
–	–	1380 ± 985	> 1 nM and 7.7 nM	453 ± 218	228 ± 73	–	1.1 ± 0.8	1790 ± 520	< 14	0.9 ± 0.6	–	–	–	C=CC(=O)Nc1cccc(-c2c(-c3ccc(N4CCN(C)CC4)cc3)[nH]c3ncn(CC4CC4)c(=O)c23)c1 [Compound 29k]
–	–	1390	4.9 ± 1.3 nM	1020 ± 335	183 ± 48	–	5.1 ± 0.1	2040	22 ± 2	4 ± 2.7	–	–	–	C#CCn1cnc2[nH]c(-c3ccc(N4CCN(C)CC4)cc3)c(-c3cccc(NC(=O)C=C)c3)c2c1=O [Compound 29c]
–	–	8820 ± 697	0.5 nM	1140 ± 350	< 200	188 ± 64	1.2 ± 0.1	9510 ± 403	82 ± 20	0.5	–	–	–	C=CC(=O)Nc1cccc(-c2c(-c3ccc(N4CCN(C)CC4)cc3)[nH]c3ncn(C)c(=O)c23)c1 [Compound 29a]
–	–	22400 ± 11200	0.9 ± 0.1 nM	1870 ± 595	723 ± 188	–	0.4 ± 0.1	> 30000	< 14	0.1 ± 0.1	–	–	–	C=CC(=O)Nc1cccc(-c2c(-c3ccc(N4CCN(C)CC4)cc3)[nH]c3ncn(CCSC)c(=O)c23)c1 [Compound 29e]
84	–	2130 ± 990	> 1 nM and 1.2 nM	502 ± 166	263 ± 46	–	0.1	1940 ± 45	< 14	< 0.1	–	–	–	C=CC(=O)Nc1cccc(-c2c(-c3ccc(N4CCN(C)CC4)cc3)[nH]c3ncn(C4CCCC4)c(=O)c23)c1 [Compound 29i]
–	–	25200 ± 8250	> 1 nM and 21 nM	1080 ± 169	1570 ± 260	–	1 ± 0.2	> 30000	44 ± 26	1.5 ± 0.8	–	–	–	C=CC(=O)Nc1cccc(-c2c(-c3ccc(N4CCN(C)CC4)cc3)[nH]c3ncn(Cc4ccccc4)c(=O)c23)c1 [Compound 29l]
–	–	3970 ± 720	–	1790 ± 1090	4680 ± 1030	–	–	3780 ± 383	16 ± 3	–	–	–	–	CCN1CCN(Cc2ccc(-c3cc4c(N[C@H](C)c5ccccc5)ncnc4[nH]3)cc2)CC1 [AEE788, reference compound]
–	–	6140 ± 2120	> 1 nM and 3.4 nM	1100 ± 506	686 ± 199	–	0.8 ± 0.2	6840 ± 866	45 ± 7	0.2 ± 0.1	–	–	–	C=CC(=O)Nc1cccc(-c2c(-c3ccc(N4CCN(C)CC4)cc3)[nH]c3ncn(CC(C)C)c(=O)c23)c1 [Compound 29h]
–	–	2970 ± 1070	4.5 ± 0.8 nM	767 ± 151	550 ± 157	–	0.2	3270 ± 693	< 14	0.3 ± 0.3	–	–	–	C=CC(=O)Nc1cccc(-c2c(-c3ccc(N4CCN(C)CC4)cc3)[nH]c3ncn(CCCC)c(=O)c23)c1 [Compound 29d]
–	–	–	–	4380 ± 1390	296 ± 64	–	–	–	< 14	–	–	–	–	Cc1cc(C(=O)Nc2nc3cccc(Cl)c3n2[C@@H]2CCCCN(C(=O)/C=C/CN(C)C)C2)ccn1 [EGF816, nazartinib, reference compound]
–	–	24700 ± 7550	20 ± 6 nM	–	–	–	4.6 ± 1.1	11900	134	1.7 ± 0.5	–	–	–	C=CC(=O)Nc1cccc(-c2c(-c3ccc(N4CCN(C)CC4)cc3)[nH]c3ncn(CCCSC)c(=O)c23)c1 [Compound 29f]

Further lines, the compound ahead of its results:

SMILES	microsomal CLint at 3 µM [1] [µL/min/mg]	EC50 ([2]; NCI-H358, 96 h) [nM]	EC50 [3] [nM]	IC50 [4, 10]	EC50 [5] [nM]	EC50 [6, 11] [nM]	EC50 [6, 12] [nM]	IC50 [7, 13] [nM]	EC50 [2, 14] [nM]	EC50 [8] [nM]	IC50 [9] [nM]	IC50 ([4]; IC50 gatekeeper mutant EGFR, rounded value) [nM]	IC50 ([7]; IC50 EGFR-wt, rounded value) [nM]	EC50 ([6]; Homo sapiens, NCI-H1975, read-out: EC50 / potency in H1975 cells, H1975, rounded value in running text) [nM]
CN(C)C/C=C/C(=O)Nc1cc2c(Nc3ccc(F)c(Cl)c3)ncnc2cc1O[C@H]1CCOC1 [Afatinib, afatinib, reference compound]	6	1330 ± 515	1490 ± 430	–	–	–	–	–	–	–	–	–	–	–
C=CC(=O)Nc1cc(-c2c(-c3ccc(N4CCN(C)CC4)cc3)[nH]c3ncnc(OC)c23)ccc1OC(C)COC (stereo not drawn) [Compound 20b]	8	–	5850	0.1 ± 0.1 nM	1320 ± 777	~300	375 ± 252	0.2 ± 0.2	4470	< 14	< 0.1	–	–	–
C=CC(=O)Nc1cccc(-c2c[nH]c3ncnc(OC)c23)c1 [Compound 9]	–	–	13600 ± 1400	< 100 nM and 31 nM	–	9910 ± 3390	–	82 ± 4	24500 ± 4870	2170 ± 968	14 ± 2	–	–	–
CCC(=O)Nc1cccc(-c2c(-c3ccccc3)[nH]c3ncnc(OC)c23)c1 [Compound 1b]	–	–	> 30000	3960 ± 614 nM	> 30000	> 30000	–	5370 ± 1920	> 30000	–	1700 ± 747	4000	5000	–
C=CC(=O)Nc1cccc(-c2c(-c3ccccc3)[nH]c3ncnc(OC)c23)c1 [Compound 1a]	156	–	> 30000	176 ± 33 nM	> 30000	–	–	1200 ± 87	> 30000	827 ± 234	133 ± 57	–	~1000	–
CCC(=O)Nc1cccc(-c2c(-c3ccc(N4CCN(C)CC4)cc3)[nH]c3ncn(C)c(=O)c23)c1 [Compound 19b]	–	–	6260 ± 1090	305 ± 192 nM	9730 ± 4020	–	–	996 ± 395	10200 ± 2240	1790 ± 727	147 ± 97	–	–	–
C=CC(=O)Nc1cccc(Nc2nc(Nc3ccc(N4CCN(C(C)=O)CC4)cc3OC)ncc2C(F)(F)F)c1 [Rociletinib, rociletinib, reference compound]	–	–	–	–	1910 ± 467	145 ± 86	–	–	–	45 ± 11	–	–	–	–
C=CC(=O)Nc1cccc(-c2c(-c3ccc(N4CCN(C)CC4)cc3)[nH]c3ncnc(OCCCSC)c23)c1 [Compound 19e]	–	–	3010 ± 916	0.1 ± 0.1 nM	3680 ± 500	281 ± 88	–	0.2	2570 ± 338	< 14	< 0.1	–	–	–
C=CC(=O)Nc1cccc(-c2c(-c3ccc(N4CCN(C)CC4)cc3)[nH]c3ncnc(OCC)c23)c1 [Compound 19c]	–	–	1020 ± 46	0.1 ± 0.1 nM	759 ± 394	64 ± 25	–	0.2 ± 0.1	1660 ± 759	< 14	< 0.1	–	–	–
C=CC(=O)Nc1cccc(-c2c(-c3ccc(N4CCN(C)CC4)cc3)[nH]c3nc[nH]c(=O)c23)c1 [Compound 19i]	–	–	> 30000	24 ± 12 nM	–	–	–	12 ± 4	> 30000	557 ± 266	12 ± 4	–	–	–
CCC(=O)Nc1cccc(-c2c(-c3ccc(CN4CCN(C)CC4)cc3)[nH]c3ncnc(OC)c23)c1 [Compound 17b]	–	–	5730 ± 1430	302 ± 84 nM	5670 ± 60	9610 ± 1120	–	460 ± 162	10300 ± 2170	1520 ± 399	116 ± 57	–	–	–
C=CC(=O)Nc1cccc(-c2c(-c3ccc(N4CCN(C)CC4)cc3)[nH]c3ncnc(OC)c23)c1 [Compound 19a]	–	–	840 ± 289	0.2 nM	638 ± 247	60 ± 8	–	0.4	1670 ± 721	< 14	0.1	–	–	–
C=CC(=O)Nc1cc(-c2c(-c3ccc(N4CCN(C)CC4)cc3)[nH]c3ncnc(OC)c23)ccc1OCCOC [Compound 20a]	–	–	956	< 0.1 nM	–	~300	298 ± 251	0.2 ± 0.1	1100	< 14	< 0.1	–	–	–
COc1ncnc2[nH]c(-c3ccc(C)cc3)c(-c3cccc(NC(=O)C=CCN4CCCCC4)c3)c12 [Compound 10c]	–	–	4480 ± 896	158 ± 16 nM	2750 ± 1220	1900 ± 269	–	220 ± 57	4250 ± 336	253 ± 1	197 ± 11	–	–	~2000
C=CC(=O)Nc1cccc(-c2c(-c3ccc(N4CCN(C)CC4)cc3)[nH]c3ncnc(OC4CCCC4)c23)c1 [Compound 19f]	128	–	–	< 0.1 nM	1790 ± 744	107 ± 45	–	0.2	–	–	< 0.1	–	–	–
